According to the supplement of paper PMC11061612:

Assays:
Capivasertib = compound: C1CN(CCC1(C(=O)N[C@@H](CCO)C2=CC=C(C=C2)Cl)N)C3=NC=NC4=C3C=CN4 [Capivasertib]; details: max 10 µM
How it was run: (§1)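 After 24 hours at 37°C and 5% CO2 in 1536-well plates holding 7.5 μl of DMEM/F12 or RPMI with 10% FBS, cancer cell lines were dosed for 72 hours, with final DMSO typically 0.2%. Viability came from CellTiter-Glo 2.0 luminescence, scaled between the means of blank wells and DMSO wells. A non-linear mixed effects model fitted a two-parameter logistic curve to each dose response to give the single-agent IC50.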

AZD1775 = compound: C=CCn1c(=O)c2cnc(Nc3ccc(N4CCN(C)CC4)cc3)nc2n1-c1cccc(C(C)(C)O)n1 [AZD1775]; details: max 3 µM
How it was run: as §1

Trametinib = compound: CC(=O)Nc1cccc(-n2c(=O)n(C3CC3)c(=O)c3c(Nc4ccc(I)cc4F)n(C)c(=O)c(C)c32)c1 [Trametinib]; details: max 1 µM
How it was run: as §1

Palbociclib = compound: CC(=O)c1c(C)c2cnc(Nc3ccc(N4CCNCC4)cn3)nc2n(C2CCCC2)c1=O [Palbociclib]; details: max 10 µM
How it was run: as §1

AZD1390 = compound: CC(C)n1c(=O)n(C)c2cnc3cc(F)c(-c4ccc(OCCCN5CCCCC5)nc4)cc3c21 [AZD1390]; details: max 0.3 µM
How it was run: as §1

Venetoclax = compound: CC1(C)CCC(CN2CCN(c3ccc(C(=O)NS(=O)(=O)c4ccc(NCC5CCOCC5)c([N+](=O)[O-])c4)c(Oc4cnc5[nH]ccc5c4)c3)CC2)=C(c2ccc(Cl)cc2)C1 [Venetoclax]; details: max 1 µM
How it was run: as §1

Dasatinib = compound: CC1=C(C(=CC=C1)Cl)NC(=O)C2=CN=C(S2)NC3=CC(=NC(=N3)C)N4CCN(CC4)CCO [Dasatinib]; details: max 2 µM
How it was run: as §1

SG3199 = compound: CC1=CN2[C@@H](C1)C=NC3=CC(=C(C=C3C2=O)OC)OCCCCCOC4=C(C=C5C(=C4)N=C[C@@H]6CC(=CN6C5=O)C)OC [SG3199]; details: max 0.001 µM
How it was run: as §1

AZD2811 = compound: CCN(CCO)CCCOc1ccc2c(Nc3cc(CC(=O)Nc4cccc(F)c4)[nH]n3)ncnc2c1 [AZD2811]; details: max 1 µM
How it was run: as §1

SN-38 = compound: CCc1c2c(nc3ccc(O)cc13)-c1cc3c(c(=O)n1C2)COC(=O)[C@]3(O)CC [SN-38]; details: max 0.3 µM
How it was run: as §1

AZD0156 = compound: CN(C)CCCOc1ccc(-c2ccc3ncc4c(c3c2)n(C2CCOCC2)c(=O)n4C)cn1 [AZD0156]; details: max 3 µM
How it was run: as §1

AZD4320 = compound: CN(CC[C@H](CSC1=CC=CC=C1)NC2=C(C=C(C=C2)S(=O)(=O)NC(=O)C3=CC=C(C=C3)N4CCC(CC4)[C@H](C5=CC=CC=C5C6=CC=C(C=C6)Cl)O)S(=O)(=O)C(F)(F)F)CCO [AZD4320]; details: max 1 µM
How it was run: as §1

Alisertib = compound: COc1cc(Nc2ncc3c(n2)-c2ccc(Cl)cc2C(c2c(F)cccc2OC)=NC3)ccc1C(=O)O [Alisertib]; details: max 10 µM
How it was run: as §1

Gefitinib = compound: COc1cc2ncnc(Nc3ccc(F)c(Cl)c3)c2cc1OCCCN1CCOCC1 [Gefitinib]; details: max 10 µM
How it was run: as §1

Prexasertib = compound: COc1cccc(OCCCN)c1-c1cc(Nc2cnc(C#N)cn2)n[nH]1 [Prexasertib]; details: max 1 µM
How it was run: as §1

Doxorubicin = compound: COc1cccc2c1C(=O)c1c(O)c3c(c(O)c1C2=O)C[C@@](O)(C(=O)CO)C[C@@H]3O[C@H]1C[C@H](N)[C@H](O)[C@H](C)O1 [Doxorubicin]; details: max 1 µM
How it was run: as §1

AZD5153 = compound: COc1nnc2ccc(N3CCC(c4ccc(OCCN5CCN(C)C(=O)[C@H]5C)cc4)CC3)nn12 [AZD5153]; details: max 1 µM
How it was run: as §1

Lapatinib = compound: CS(=O)(=O)CCNCc1ccc(-c2ccc3ncnc(Nc4ccc(OCc5cccc(F)c5)c(Cl)c4)c3c2)o1 [Lapatinib]; details: max 10 µM
How it was run: as §1

AZD8186 = compound: C[C@@H](Nc1cc(F)cc(F)c1)c1cc(C(=O)N(C)C)cc2c(=O)cc(N3CCOCC3)oc12 [AZD8186]; details: max 3 µM
How it was run: as §1

Crizotinib = compound: C[C@@H](Oc1cc(-c2cnn(C3CCNCC3)c2)cnc1N)c1c(Cl)ccc(F)c1Cl [Crizotinib]; details: max 10 µM
How it was run: as §1

Savolitinib = compound: C[C@@H](c1ccc2nccn2c1)n1nnc2ncc(-c3cnn(C)c3)nc21 [Savolitinib]; details: max 1 µM
How it was run: as §1

AZD6738 = compound: C[C@@H]1COCCN1C2=NC(=NC(=C2)C3(CC3)[S@](=N)(=O)C)C4=C5C=CNC5=NC=C4 [AZD6738]; details: max 10 µM
How it was run: as §1

AZD5991 = compound: Cc1c2c(nn1C)CSCc1cc(n(C)n1)CSc1cc(c3ccccc3c1)OCCCc1c(C(=O)O)n(C)c3c-2c(Cl)ccc13 [AZD5991]; details: max 1 µM
How it was run: as §1

AZD7648 = compound: Cc1cc2ncnn2cc1Nc1ncc2c(n1)n(C1CCOCC1)c(=O)n2C [AZD7648]; details: max 10 µM
How it was run: as §1

Taselisib = compound: Cc1nc(-c2cn3c(n2)-c2ccc(-c4cnn(C(C)(C)C(N)=O)c4)cc2OCC3)n(C(C)C)n1 [Taselisib]; details: max 10 µM
How it was run: as §1

Selumetinib = compound: Cn1cnc2c(F)c(Nc3ccc(Br)cc3Cl)c(C(=O)NOCCO)cc21 [Selumetinib]; details: max 10 µM
How it was run: as §1

MK-2206 = compound: NC1(c2ccc(-c3nc4ccn5c(=O)[nH]nc5c4cc3-c3ccccc3)cc2)CCC1 [MK-2206]; details: max 10 µM
How it was run: as §1

Olaparib = compound: O=C(c1cc(Cc2n[nH]c(=O)c3ccccc23)ccc1F)N1CCN(C(=O)C2CC2)CC1 [Olaparib]; details: max 10 µM
How it was run: as §1

Cell Line	IC50, cell viability 72 h (Capivasertib) [nM]	IC50, cell viability 72 h (AZD1775) [nM]	IC50, cell viability 72 h (Trametinib) [nM]	IC50, cell viability 72 h (Palbociclib) [nM]	IC50, cell viability 72 h (AZD1390) [nM]	IC50, cell viability 72 h (Venetoclax) [nM]	IC50, cell viability 72 h (Dasatinib) [nM]	IC50, cell viability 72 h (SG3199) [nM]	IC50, cell viability 72 h (AZD2811) [nM]	IC50, cell viability 72 h (SN-38) [nM]	IC50, cell viability 72 h (AZD0156) [nM]	IC50, cell viability 72 h (AZD4320) [nM]	IC50, cell viability 72 h (Alisertib) [nM]	IC50, cell viability 72 h (Gefitinib) [nM]	IC50, cell viability 72 h (Prexasertib) [nM]	IC50, cell viability 72 h (Doxorubicin) [nM]	IC50, cell viability 72 h (AZD5153) [nM]	IC50, cell viability 72 h (Lapatinib) [nM]	IC50, cell viability 72 h (AZD8186) [nM]	IC50, cell viability 72 h (Crizotinib) [nM]	IC50, cell viability 72 h (Savolitinib) [nM]	IC50, cell viability 72 h (AZD6738) [nM]	IC50, cell viability 72 h (AZD5991) [nM]	IC50, cell viability 72 h (AZD7648) [nM]	IC50, cell viability 72 h (Taselisib) [nM]	IC50, cell viability 72 h (Selumetinib) [nM]	IC50, cell viability 72 h (MK-2206) [nM]	IC50, cell viability 72 h (Olaparib) [nM]
NCI-H596 (Other Solid Carcinomas)	> 10000	1450	> 1000	> 10000	> 300	> 1000	> 2000	> 1	> 1000	> 300	> 3000	> 1000	> 10000	> 10000	866	> 1000	301	> 10000	> 3000	> 10000	> 1000	> 10000	> 1000	> 10000	4950	> 10000	> 10000	> 10000
NCI-H1876 (Small Cell Lung Carcinoma)	> 10000	330	> 1000	> 10000	> 300	> 1000	> 2000	> 1	149	1.03	> 3000	176	265	> 10000	29.2	221	> 1000	> 10000	> 3000	5910	> 1000	4710	> 1000	> 10000	3900	> 10000	> 10000	4440
OAW-28 (Ovarian Carcinoma)	> 10000	> 3000	> 1000	> 10000	> 300	> 1000	> 2000	> 1	> 1000	11.4	> 3000	176	> 10000	> 10000	720	> 1000	> 1000	> 10000	> 3000	> 10000	> 1000	> 10000	> 1000	> 10000	6130	> 10000	> 10000	> 10000
P32-ISH (Burkitt's Lymphoma)	8020	218	> 1000	6150	> 300	> 1000	> 2000	> 1	77	1.82	> 3000	> 1000	20	> 10000	5.37	303	136	6900	> 3000	2270	> 1000	2600	50.1	> 10000	8180	> 10000	–	> 10000
PA-TU-8988T (Pancreatic Carcinoma)	> 10000	1290	> 1000	> 10000	> 300	> 1000	664	> 1	> 1000	185	> 3000	> 1000	> 10000	> 10000	> 1000	940	193	> 10000	> 3000	> 10000	> 1000	> 10000	> 1000	> 10000	6150	> 10000	–	> 10000
PL4 (Pancreatic Carcinoma)	> 10000	1360	106	> 10000	> 300	> 1000	634	> 1	> 1000	43.5	> 3000	> 1000	8070	> 10000	117	> 1000	969	> 10000	> 3000	> 10000	> 1000	6410	> 1000	> 10000	2260	> 10000	–	> 10000
Raji (Burkitt's Lymphoma)	> 10000	472	> 1000	> 10000	> 300	> 1000	> 2000	> 1	> 1000	4.3	> 3000	> 1000	> 10000	> 10000	18.7	114	371	> 10000	> 3000	> 10000	> 1000	3810	506	> 10000	> 10000	> 10000	–	> 10000
